pIC50: −log10 of the molar value.
Key:
Assay type in all cases: biochemical
[1] = target: T1, ZAP70 (Homo sapiens, UniProt P43403); assay: Kinase inhibition assay: ZAP70; details: at 1 μM concentration
T1 construct: Purified full-length human SYK, ZAP70, PIM1, PYK2; purchased Carna Biosciences
T1 sequence (P43403 1-619): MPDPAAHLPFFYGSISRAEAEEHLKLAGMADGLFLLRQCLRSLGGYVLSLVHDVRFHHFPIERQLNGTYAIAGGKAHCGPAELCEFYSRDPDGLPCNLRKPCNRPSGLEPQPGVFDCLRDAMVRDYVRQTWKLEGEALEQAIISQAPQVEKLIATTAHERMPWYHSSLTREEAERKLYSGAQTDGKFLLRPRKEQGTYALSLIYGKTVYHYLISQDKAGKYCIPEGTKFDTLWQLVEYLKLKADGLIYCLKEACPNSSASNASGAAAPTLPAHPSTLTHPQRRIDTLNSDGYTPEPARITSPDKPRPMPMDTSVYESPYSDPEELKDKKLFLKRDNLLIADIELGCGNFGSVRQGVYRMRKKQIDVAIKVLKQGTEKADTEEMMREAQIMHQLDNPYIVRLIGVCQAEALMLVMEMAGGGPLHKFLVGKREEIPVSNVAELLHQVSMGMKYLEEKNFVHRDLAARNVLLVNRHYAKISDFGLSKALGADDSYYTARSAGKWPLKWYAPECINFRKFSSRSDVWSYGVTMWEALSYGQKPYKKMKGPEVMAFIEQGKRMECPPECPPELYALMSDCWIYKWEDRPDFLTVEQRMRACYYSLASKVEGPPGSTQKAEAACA
Protocol: (§1) Compounds of the present invention were tested for their capacity to inhibit a kinase panel which includes, but are not limited to, spleen tyrosine kinase (SYK), zeta-chain-associated protein kinase 70 (ZAP70), PTK2B protein tyrosine kinase 2 (PYK2), focal adhesion kinase (FAK), provirus integration of maloney kinase 1 (PIM1), rearranged during transfection kinase (RET), Fms-like tyrosine kinase 3 (FLT3), Janus kinase 2 (JAK2), and leucine-rich repeat kinase 2 (LRRK2).
(§2) Inhibition of SYK, ZAP70, PYK2, FAK, PIM1, RET, FLT3, JAK2 and LRRK2 Kinase Activity
(§3) Compounds of the invention were initially diluted to 10 mM in 100% DMSO (CALBIOCHEM™) for storage and made into kinase buffer solution to create a compound concentration ranging from 1 uM and 10 uM. Serial dilutions of compounds of the invention were dispensed into a 96-well plate (GREINER BIOSCIENCES™) at 6 μL each. Purified full-length human SYK, ZAP70, PIM1, PYK2 and truncated human FAK, RET, FLT3, JAK2, and LRRK2 (CARNA BIOSCIENCES™) were diluted in kinase buffer and added to the compound solutions and pre-incubated for 30 minutes at room temperature (1 hour for PYK2). […] The reaction mixture was incubated for 1 hour (2 hours for PYK2). Following the incubation, the stop solution made with EDTA, water, and Lance detection buffer ([…]™) was added (12μL each) to stop phosphorylation. […] The IC50 value of test compound was calculated at Gradpad Prism 5 unless specified otherwise.

[2] = target: T2, PIM1 (Homo sapiens, UniProt P11309); assay: Kinase inhibition assay: PIM1; details: at 1 μM concentration
T2 construct: Purified full-length human SYK, ZAP70, PIM1, PYK2; purchased Carna Biosciences
T2 sequence (P11309 whole entry): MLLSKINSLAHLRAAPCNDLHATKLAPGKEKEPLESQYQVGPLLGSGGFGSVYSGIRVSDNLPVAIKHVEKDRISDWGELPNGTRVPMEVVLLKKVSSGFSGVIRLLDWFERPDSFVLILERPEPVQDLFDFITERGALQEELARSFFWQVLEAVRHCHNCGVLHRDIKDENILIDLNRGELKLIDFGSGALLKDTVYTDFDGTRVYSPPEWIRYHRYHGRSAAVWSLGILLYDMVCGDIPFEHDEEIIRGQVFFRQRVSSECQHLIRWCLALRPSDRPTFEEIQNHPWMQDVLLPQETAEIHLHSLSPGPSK
Protocol: as §1, §2
Compounds of the invention were initially diluted to 10 mM in 100% DMSO (CALBIOCHEM™) for storage and made into kinase buffer solution to create a compound concentration ranging from 1 uM and 10 uM. Serial dilutions of compounds of the invention were dispensed into a 96-well plate (GREINER BIOSCIENCES™) at 6 μL each. Purified full-length human SYK, ZAP70, PIM1, PYK2 and truncated human FAK, RET, FLT3, JAK2, and LRRK2 (CARNA BIOSCIENCES™) were diluted in kinase buffer and added to the compound solutions and pre-incubated for 30 minutes at room temperature (1 hour for PYK2). […] The reaction mixture was incubated for 1 hour (2 hours for PYK2). Following the incubation, the stop solution made with EDTA, water, and Lance detection buffer ([…]™) was added (12μL each) to stop phosphorylation. […] Substrate phosphorylation was a function of the 665 nm emission measured following the addition of the detection solution and 50 minutes of incubation. The IC50 value of test compound was calculated at Gradpad Prism 5 unless specified otherwise.

[3] = target: T3, RET (Homo sapiens, UniProt P07949); assay: Kinase inhibition assay: RET
T3 construct: truncated human FAK, RET, FLT3, JAK2, and LRRK2; purchased Carna Biosciences
T3 sequence (P07949 658-1114 limits assumed): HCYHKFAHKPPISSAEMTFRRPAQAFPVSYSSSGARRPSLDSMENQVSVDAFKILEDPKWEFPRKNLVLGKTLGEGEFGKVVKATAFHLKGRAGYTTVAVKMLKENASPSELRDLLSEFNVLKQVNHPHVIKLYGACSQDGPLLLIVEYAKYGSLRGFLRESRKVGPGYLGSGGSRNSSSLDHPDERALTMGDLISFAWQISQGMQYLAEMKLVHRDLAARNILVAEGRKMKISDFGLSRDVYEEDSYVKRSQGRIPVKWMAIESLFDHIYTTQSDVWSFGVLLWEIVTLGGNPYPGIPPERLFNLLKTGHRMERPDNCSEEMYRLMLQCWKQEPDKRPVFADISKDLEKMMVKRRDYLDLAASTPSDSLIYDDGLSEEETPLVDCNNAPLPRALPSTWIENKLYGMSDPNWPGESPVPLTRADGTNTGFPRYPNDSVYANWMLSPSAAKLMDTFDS

[4] = target: T4, LRRK2 (Homo sapiens, UniProt Q5S007); assay: Kinase inhibition assay: LRRK2; details: at 1 μM concentration
T4 construct: truncated human FAK, RET, FLT3, JAK2, and LRRK2; purchased Carna Biosciences
T4 sequence (Q5S007 970-2527 limits assumed): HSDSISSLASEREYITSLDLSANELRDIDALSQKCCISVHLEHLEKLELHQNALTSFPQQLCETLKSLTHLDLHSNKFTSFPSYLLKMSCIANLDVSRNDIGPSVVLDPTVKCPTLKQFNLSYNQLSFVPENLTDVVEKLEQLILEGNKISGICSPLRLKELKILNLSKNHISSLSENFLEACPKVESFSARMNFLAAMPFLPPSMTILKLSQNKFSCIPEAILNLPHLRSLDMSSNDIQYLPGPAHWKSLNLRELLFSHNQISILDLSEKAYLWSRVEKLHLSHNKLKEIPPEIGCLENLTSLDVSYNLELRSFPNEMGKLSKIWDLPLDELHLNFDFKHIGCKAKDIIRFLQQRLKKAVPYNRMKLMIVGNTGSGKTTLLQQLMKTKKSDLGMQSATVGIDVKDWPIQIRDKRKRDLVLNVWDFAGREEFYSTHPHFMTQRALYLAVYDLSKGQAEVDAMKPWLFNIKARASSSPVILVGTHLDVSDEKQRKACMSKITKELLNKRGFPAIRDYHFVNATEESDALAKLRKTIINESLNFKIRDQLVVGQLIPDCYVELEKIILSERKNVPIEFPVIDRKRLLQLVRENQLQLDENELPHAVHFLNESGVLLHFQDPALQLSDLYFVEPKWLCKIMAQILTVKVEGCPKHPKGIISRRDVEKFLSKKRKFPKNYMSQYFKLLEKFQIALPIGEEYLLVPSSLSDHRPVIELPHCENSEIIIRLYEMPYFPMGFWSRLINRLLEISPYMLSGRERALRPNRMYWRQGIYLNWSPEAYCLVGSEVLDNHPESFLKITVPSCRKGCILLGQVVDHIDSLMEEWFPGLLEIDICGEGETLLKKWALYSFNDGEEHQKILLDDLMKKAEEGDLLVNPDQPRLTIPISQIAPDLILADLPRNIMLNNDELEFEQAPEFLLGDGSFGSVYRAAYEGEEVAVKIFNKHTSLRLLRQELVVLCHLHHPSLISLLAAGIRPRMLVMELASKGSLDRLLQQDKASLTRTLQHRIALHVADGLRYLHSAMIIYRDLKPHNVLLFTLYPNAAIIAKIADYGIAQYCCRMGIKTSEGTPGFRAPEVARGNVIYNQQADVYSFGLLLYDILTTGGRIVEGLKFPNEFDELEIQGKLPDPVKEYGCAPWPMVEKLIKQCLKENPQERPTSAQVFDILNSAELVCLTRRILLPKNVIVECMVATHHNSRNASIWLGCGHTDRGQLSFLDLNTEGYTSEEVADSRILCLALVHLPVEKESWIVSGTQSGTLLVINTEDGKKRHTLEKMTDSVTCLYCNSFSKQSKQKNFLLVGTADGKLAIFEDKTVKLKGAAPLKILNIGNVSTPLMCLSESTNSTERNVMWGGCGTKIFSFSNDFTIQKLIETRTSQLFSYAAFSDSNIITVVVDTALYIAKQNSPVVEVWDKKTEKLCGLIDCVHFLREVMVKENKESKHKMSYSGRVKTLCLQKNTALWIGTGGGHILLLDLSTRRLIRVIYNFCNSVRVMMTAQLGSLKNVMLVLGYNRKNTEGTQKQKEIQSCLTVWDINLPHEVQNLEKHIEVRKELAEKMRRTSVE
Protocol: as §1, §2, §3

inhibition at 1 µM [1]: 54.6%
inhibition at 1 µM [2]: 71.2%
pIC50 [3]: 7.30
inhibition at 1 µM [4]: 93%
Structure (SMILES): COc1cc(Nc2ncc(C)c(-n3cc(C)c(CO)c3)n2)cc(OC)c1OC [Compound 21, (4-methyl-1-(5-methyl-2-(3,4,5-trimethoxyphenylamino)pyrimidin-4-yl)-1H-pyrrol-3-yl)methanol]
